Measurements taken from article PMC4891385 (Clinical Drug Investigation, 2016).
Where two headings read alike, the source gives them in different places. Values belong to the molecule of their own block, whether it stands above or below them.

Experiments:
[1] = furosemide 40 mg with lesinurad 400 mg vs alone
[2] = substrate: O=C(O)CSc1nnc(Br)n1-c1ccc(C2CC2)c2ccccc12; assay: [14C]-lesinurad uptake, substrate test, hOCT1 MDCK-II cells; assay type: in vitro ADME, human; settings: other: lesinurad as substrate of OCT1
[3] = substrate: O=C(O)CSc1nnc(Br)n1-c1ccc(C2CC2)c2ccccc12; assay: [14C]-lesinurad uptake, substrate test, OAT3 oocytes; assay type: in vitro ADME; settings: other: lesinurad as substrate of OAT3
[4] = atorvastatin 40 mg with lesinurad 200 mg vs alone

increase in AUC∞ [4]: 20%
increase in Cmax [4]: 16%
increase in Cmax (atorvastatin 40 mg with lesinurad 400 mg vs alone): 17–34%
Molecule: CC(C)c1c(C(=O)Nc2ccccc2O)c(-c2ccccc2)c(-c2ccc(F)cc2)n1CCC(O)CC(O)CC(=O)O (stereo not drawn) [2-OH-atorvastatin]

reduction of amount excreted in urine [1]: approximately 25%
Molecule: NS(=O)(=O)c1cc(C(=O)O)c(NCc2ccco2)cc1Cl [Furosemide, furosemide]

B1: OCT1 (Homo sapiens) (protein)
chain: MPTVDDILEQVGESGWFQKQAFLILCLLSAAFAPICVGIVFLGFTPDHHCQSPGVAELSQRCGWSPAEELNYTVPGLGPAGEAFLGQCRRYEVDWNQSALSCVDPLASLATNRSHLPLGPCQDGWVYDTPGSSIVTEFNLVCADSWKLDLFQSCLNAGFLFGSLGVGYFADRFGRKLCLLGTVLVNAVSGVLMAFSPNYMSMLLFRLLQGLVSKGNWMAGYTLITEFVGSGSRRTVAIMYQMAFTVGLVALTGLAYALPHWRWLQLAVSLPTFLFLLYYWCVPESPRWLLSQKRNTEAIKIMDHIAQKNGKLPPADLKMLSLEEDVTEKLSPSFADLFRTPRLRKRTFILMYLWFTDSVLYQGLILHMGATSGNLYLDFLYSALVEIPGAFIALITIDRVGRIYPMAMSNLLAGAACLVMIFISPDLHWLNIIIMCVGRMGITIAIQMICLVNAELYPTFVRNLGVMVCSSLCDIGGIITPFIVFRLREVWQALPLILFAVLGLLAAGVTLLLPETKGVALPETMKDAENLGRKAKPKENTIYLKVQTSEPSGT
Km [2]: 20 µM

B2: OAT3 (Homo sapiens) (protein)
chain: MTFSEILDRVGSMGHFQFLHVAILGLPILNMANHNLLQIFTAATPVHHCRPPHNASTGPWVLPMGPNGKPERCLRFVHPPNASLPNDTQRAMEPCLDGWVYNSTKDSIVTEWDLVCNSNKLKEMAQSIFMAGILIGGLVLGDLSDRFGRRPILTCSYLLLAASGSGAAFSPTFPIYMVFRFLCGFGISGITLSTVILNVEWVPTRMRAIMSTALGYCYTFGQFILPGLAYAIPQWRWLQLTVSIPFFVFFLSSWWTPESIRWLVLSGKSSKALKILRRVAVFNGKKEEGERLSLEELKLNLQKEISLAKAKYTASDLFRIPMLRRMTFCLSLAWFATGFAYYSLAMGVEEFGVNLYILQIIFGGVDVPAKFITILSLSYLGRHTTQAAALLLAGGAILALTFVPLDLQTVRTVLAVFGKGCLSSSFSCLFLYTSELYPTVIRQTGMGVSNLWTRVGSMVSPLVKITGEVQPFIPNIIYGITALLGGSAALFLPETLNQPLPETIEDLENWSLRAKKPKQEPEVEKASQRIPLQPHGPGLGSS
Km [3]: 2 µM
